Assay results taken from patent US9303012B2, “Pyridine-2-amides useful as CB2 agonists” (Hoffmann-La Roche Inc., priority 2012, dated 2016).

How the values were obtained:
[1] = biological target: human CB2 receptors (Homo sapiens (Human), UniProt P34972); experiment: functional cAMP assay, CHO cells expressing human CB2 receptors; format: cell-based
In short: (§1)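 CHO cells with human CB1 or CB2 were switched to Krebs Ringer bicarbonate buffer with 1 mM IBMX for 30 min at 30 °C, then given compound for 30 min at 30 °C. cAMP was measured by time-resolved FRET against a cAMP standard curve, and EC50 values were calculated.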

[2] = biological target: human CB1 receptors (Homo sapiens (Human), UniProt P21554); experiment: functional cAMP assay, CHO cells expressing human CB1 receptors; format: cell-based
Chain of human CB1 receptors (P21554 whole entry): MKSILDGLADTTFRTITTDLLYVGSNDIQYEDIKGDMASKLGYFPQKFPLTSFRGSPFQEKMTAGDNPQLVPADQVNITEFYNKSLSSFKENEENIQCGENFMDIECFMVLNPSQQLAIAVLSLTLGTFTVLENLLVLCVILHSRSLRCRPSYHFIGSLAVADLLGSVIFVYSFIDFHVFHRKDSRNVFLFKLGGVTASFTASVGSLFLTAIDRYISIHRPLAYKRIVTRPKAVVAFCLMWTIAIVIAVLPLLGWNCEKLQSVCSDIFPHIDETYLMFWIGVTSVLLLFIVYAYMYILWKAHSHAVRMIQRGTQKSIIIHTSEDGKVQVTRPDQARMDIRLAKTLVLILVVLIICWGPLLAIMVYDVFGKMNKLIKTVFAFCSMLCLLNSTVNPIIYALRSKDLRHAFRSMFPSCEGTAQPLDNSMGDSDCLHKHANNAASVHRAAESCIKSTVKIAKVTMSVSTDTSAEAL
In short: as §1

Chain of human CB2 receptors (P34972 whole entry): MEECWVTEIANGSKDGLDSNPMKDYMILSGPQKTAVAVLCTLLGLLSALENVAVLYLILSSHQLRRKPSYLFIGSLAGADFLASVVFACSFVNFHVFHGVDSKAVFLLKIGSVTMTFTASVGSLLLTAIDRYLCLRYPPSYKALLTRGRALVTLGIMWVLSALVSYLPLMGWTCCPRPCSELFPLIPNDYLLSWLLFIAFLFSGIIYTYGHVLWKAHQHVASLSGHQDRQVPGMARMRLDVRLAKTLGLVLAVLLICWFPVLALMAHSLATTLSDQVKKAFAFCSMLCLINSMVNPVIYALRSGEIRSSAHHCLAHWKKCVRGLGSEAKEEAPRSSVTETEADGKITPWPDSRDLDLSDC

Structure (SMILES)	EC50 [1] [nM]	EC50 [2] [nM]
O=C(c1ccc(N2CC(F)(F)C2)c(OCC2CC2)n1)N1CC(O)(C(F)(F)F)C1 [Example 139, [6-(Cyclopropylmethoxy)-5-(3,3-difluoroazetidin-1-yl)pyridin-2-yl]-[3-hydroxy-3-(trifluoromethyl)azetidin-1-yl]methanone]	42	> 10000
NC(=O)C1CCCCN1C(=O)c1ccc(C2CC2)c(OCC2CC2)n1 (stereo not drawn) [Example 88, 1-(5-Cyclopropyl-6-cyclopropylmethoxy-pyridine-2-carbonyl)-piperidine-2-carboxylic acid amide]	180	> 10000
O=C(c1ccc(C2CC2)c(Cc2ccc(F)cc2)n1)N1CCCC12CCNCC2 [Example 113, [5-Cyclopropyl-6-(4-fluoro-benzyl)-pyridin-2-yl]-(1,8-diaza-spiro[4.5]dec-1-yl)-methanone]	212	> 10000
CN1C(=O)CN(C(=O)c2ccc(N3CC(F)(F)C3)c(OCC3CC3)n2)[C@@H]1C(C)(C)C [Example 56, (R)-2-tert-Butyl-1-[6-cyclopropylmethoxy-5-(3,3-difluoro-azetidin-1-yl)-pyridine-2-carbonyl]-3-methyl-imidazolidin-4-one]	36.9	> 10000
CC(C)CS(=O)(=O)c1nc(C(=O)N(C)C(C)(C)C)ccc1C1CC1 [Example 6, 5-Cyclopropyl-6-(2-methyl-propane-1-sulfonyl)-pyridine-2-carboxylic acid tert-butyl-methyl-amide]	106	> 10000
NC(=O)[C@@H]1C[S@+]([O-])CN1C(=O)c1ccc(C2CC2)c(OCC2CC2)n1 (single isomer, unassigned) [Example 116, (1S,4R)-3-(5-Cyclopropyl-6-cyclopropylmethoxy-pyridine-2-carbonyl)-1-oxo-1λ^4-thiazolidine-4-carboxylic acid amide or (1R,4S)-3-(5-cyclopropyl-6-cyclopropylmethoxy-pyridine-2-carbonyl)-1-oxo-1λ^4-thiazolidine-4-carboxylic acid amide]	672	> 10000
O=C(c1ccc(N2CC(F)(F)C2)c(OCC2CC2)n1)N1CC(F)(C2CC2)C1 [Example 150, (3-Cyclopropyl-3-fluoroazetidin-1-yl)-[6-(cyclopropylmethoxy)-5-(3,3-difluoroazetidin-1-yl)pyridin-2-yl]methanone]	8	> 10000
CC1(O)C[C@@H](C(N)=O)N(C(=O)c2ccc(N3CC(F)(F)C3)c(OCC3CC3)n2)C1 (stereo partly drawn) [Example 132, (2S)-1-[6-(Cyclopropylmethoxy)-5-(3,3-difluoroazetidin-1-yl)pyridine-2-carbonyl]-4-hydroxy-4-methylpyrrolidine-2-carboxamide]	30.1	> 10000
COC[C@H]1CCCN1C(=O)c1ccc(N2CC(F)(F)C2)c(OCC2CC2)n1 [Example 46, [6-Cyclopropylmethoxy-5-(3,3-difluoro-azetidin-1-yl)-pyridin-2-yl]-((R)-2-methoxymethyl-pyrrolidin-1-yl)-methanone]	360	> 10000
O=C(c1ccc(N2CC(F)(F)C2)c(OCC2CC2)n1)N1[C@@H]2CC[C@H]1COC2 [Example 86, [6-Cyclopropylmethoxy-5-(3,3-difluoro-azetidin-1-yl)-pyridin-2-yl]-(1R,5S)-3-oxa-8-aza-bicyclo[3.2.1]oct-8-yl-methanone]	72.7	> 10000
CC1(C)CC(C(N)=O)N(C(=O)c2ccc(C3CC3)c(OCC3CC3)n2)C1 (stereo not drawn) [Example 90, 1-(5-Cyclopropyl-6-cyclopropylmethoxy-pyridine-2-carbonyl)-4,4-dimethyl-pyrrolidine-2-carboxylic acid amide]	14.8	> 10000
NC(=O)[C@@H]1CSCCN1C(=O)c1ccc(C2CC2)c(OCC2CC2)n1 [Example 93, (−)-4-(5-Cyclopropyl-6-cyclopropylmethoxy-pyridine-2-carbonyl)-thiomorpholine-3-carboxylic acid amide]	327	> 10000
NC(=O)C1C[S+]([O-])CN1C(=O)c1ccc(N2CC(F)(F)C2)c(OCC2CC2)n1 (stereo not drawn) [Example 124, 3-[6-(Cyclopropylmethoxy)-5-(3,3-difluoroazetidin-1-yl)pyridine-2-carbonyl]-1-oxo-1,3-thiazolidine-4-carboxamide]	52.6	> 10000
CC1(C)C[C@@H](C(N)=O)N(C(=O)c2ccc(N3CC(F)(F)C3)c(OCC3CC3)n2)C1 [Example 78, (−)-1-[6-Cyclopropylmethoxy-5-(3,3-difluoro-azetidin-1-yl)-pyridine-2-carbonyl]-4,4-dimethyl-pyrrolidine-2-carboxylic acid amide]	1.2	> 10000
NC(=O)[C@@H]1CSCN1C(=O)c1ccc(C2CC2)c(OCC2CC2)n1 [Example 97, (−)-3-(5-Cyclopropyl-6-cyclopropylmethoxy-pyridine-2-carbonyl)-thiazolidine-4-carboxylic acid amide]	72.3	> 10000
C[C@]1(O)C[C@@H](C(N)=O)N(C(=O)c2ccc(N3CC(F)(F)C3)c(OCC3CC3)n2)C1 [Example 140, (+)-(2S)-1-[6-(Cyclopropylmethoxy)-5-(3,3-difluoroazetidin-1-yl)pyridine-2-carbonyl]-4-hydroxy-4-methylpyrrolidine-2-carboxamide]	40.6	> 10000
NC(=O)[C@@H]1CCCN1C(=O)c1ccc(C2CC2)c(OCC2CC2)n1 [Example 73, (S)-1-(5-Cyclopropyl-6-cyclopropylmethoxy-pyridine-2-carbonyl)-pyrrolidine-2-carboxylic acid amide]	636	> 10000
CC1(C)C[C@H](C(N)=O)N(C(=O)c2ccc(C3CC3)c(OCC3CC3)n2)C1 [Example 94, (+)-1-(5-Cyclopropyl-6-cyclopropylmethoxy-pyridine-2-carbonyl)-4,4-dimethyl-pyrrolidine-2-carboxylic acid amide]	80.2	> 10000
NC(=O)[C@@H]1CC(F)(F)CN1C(=O)c1ccc(C2(F)COC2)c(OCC2CC2)n1 [Example 134, (2S)-1-[6-(Cyclopropylmethoxy)-5-(3-fluorooxetan-3-yl)pyridine-2-carbonyl]-4,4-difluoropyrrolidine-2-carboxamide]	52.2	> 10000
O=C(c1ccc(N2CC(F)(F)C2)c(OCC2CC2)n1)N1CC2(CC(O)CO2)C1 (stereo not drawn) [Example 83, [6-Cyclopropylmethoxy-5-(3,3-difluoro-azetidin-1-yl)-pyridin-2-yl]-(7-hydroxy-5-oxa-2-aza-spiro[3.4]oct-2-yl)-methanone]	760	> 10000
NC(=O)[C@@H]1CC2(CC2)CN1C(=O)c1ccc(N2CC(F)(F)C2)c(OCC2CC2)n1 [Example 145, (6S)-5-[6-(Cyclopropylmethoxy)-5-(3,3-difluoroazetidin-1-yl)pyridine-2-carbonyl]-5-azaspiro[2.4]heptane-6-carboxamide]	356	> 10000
COCCN(C(=O)c1ccc(N2CC(F)(F)C2)c(OCC2CC2)n1)C(C)(C)C [Example 20, 6-Cyclopropylmethoxy-5-(3,3-difluoro-azetidin-1-yl)-pyridine-2-carboxylic acid tert-butyl-(2-methoxy-ethyl)-amide]	5.3	> 10000
NC(=O)C1CC2(CC2)CN1C(=O)c1ccc(N2CC(F)(F)C2)c(OCC2CC2)n1 (stereo not drawn) [Example 135, 5-[6-(Cyclopropylmethoxy)-5-(3,3-difluoroazetidin-1-yl)pyridine-2-carbonyl]-5-azaspiro[2.4]heptane-6-carboxamide]	15.6	> 10000
NC(=O)[C@@H]1CC(F)(F)CN1C(=O)c1ccc(C2CC2)c(Cc2ccc(F)cc2)n1 [Example 76, (S)-1-[5-Cyclopropyl-6-(4-fluoro-benzyl)-pyridine-2-carbonyl]-4,4-difluoro-pyrrolidine-2-carboxylic acid amide]	0.2	167
CC1(C)CCCN1C(=O)c1ccc(OCC2CC2)c(Cl)n1 [Example 47, (6-Chloro-5-cyclopropylmethoxy-pyridin-2-yl)-(2,2-dimethyl-pyrrolidin-1-yl)-methanone]	113	> 10000
NC(=O)[C@@H]1N(C(=O)c2ccc(N3CC(F)(F)C3)c(OCC3CC3)n2)CCC12CC2 [Example 151, (−)-5-[6-(Cyclopropylmethoxy)-5-(3,3-difluoroazetidin-1-yl)pyridine-2-carbonyl]-5-azaspiro[2.4]heptane-4-carboxamide]	818	> 10000
CN(C)C(=O)CN(C(=O)c1ccc(N2CC(F)(F)C2)c(OCC2CC2)n1)C(C)(C)C [Example 27, 6-Cyclopropylmethoxy-5-(3,3-difluoro-azetidin-1-yl)-pyridine-2-carboxylic acid tert-butyl-dimethylcarbamoylmethyl-amide]	774	> 10000
O=C(c1ccc(N2CC(F)(F)C2)c(OCC2CC2)n1)N1CCCC12COC2 [Example 38, [6-Cyclopropylmethoxy-5-(3,3-difluoro-azetidin-1-yl)-pyridin-2-yl]-(2-oxa-5-aza-spiro[3.4]oct-5-yl)-methanone]	212	> 10000
O=C(c1ccc(N2CC(F)(F)C2)c(OCC2CC2)n1)N1CCC(CO)(C(F)(F)F)C1 (stereo not drawn) [Example 137, [6-(Cyclopropylmethoxy)-5-(3,3-difluoroazetidin-1-yl)pyridin-2-yl]-[3-(hydroxymethyl)-3-(trifluoromethyl)pyrrolidin-1-yl]methanone]	53.8	> 10000
CC(=O)N1CCC(N(C(=O)c2ccc(N3CC(F)(F)C3)c(OCC3CC3)n2)C2CC2)CC1 [Example 50, 6-Cyclopropylmethoxy-5-(3,3-difluoro-azetidin-1-yl)-pyridine-2-carboxylic acid (1-acetyl-piperidin-4-yl)-cyclopropyl-amide]	237	> 10000
